# Laboratory results as given in PubChem BioAssay (NCI).
#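 Step 1: Grow cells in 96-well plates. Step 2: Expose to compound for 48 hours at 5 concentrations. Step 3: Interpolate endpoints linearly; if unreached, use highest concentration. The concentration for 50% growth inhibition is given as GI50. TGI: total growth inhibition.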
# What was measured:
# Test in all cases: growth of human tumour cells (NCI), 48 h
# HCC-2998 colon = system: HCC-2998 colon
# 786-0 renal = system: 786-0 renal
# SK-MEL-2 melanoma = system: SK-MEL-2 melanoma
# NCI-H23 lung = system: NCI-H23 lung
# BT-549 breast = system: BT-549 breast
# NCI/ADR-RES ovarian = system: NCI/ADR-RES ovarian
# HL-60(TB) leukemia = system: HL-60(TB) leukemia
# HS 578T breast = system: HS 578T breast
# EKVX NSCLC = system: EKVX NSCLC
# SW-620 colon = system: SW-620 colon
# DU-145 prostate = system: DU-145 prostate
# SN12C renal = system: SN12C renal
# SNB-19 CNS = system: SNB-19 CNS
# TK-10 renal = system: TK-10 renal
# PC-3 prostate = system: PC-3 prostate
# UACC-62 melanoma = system: UACC-62 melanoma
# NCI-H226 lung = system: NCI-H226 lung
# HT29 colon = system: HT29 colon
# OVCAR-8 ovarian = system: OVCAR-8 ovarian
# OVCAR-4 ovarian = system: OVCAR-4 ovarian
# RXF 393 renal = system: RXF 393 renal
# MOLT-4 leukemia = system: MOLT-4 leukemia
# HOP-62 NSCLC = system: HOP-62 NSCLC
# LOX IMVI melanoma = system: LOX IMVI melanoma
# SF-268 CNS = system: SF-268 CNS
# SK-MEL-28 melanoma = system: SK-MEL-28 melanoma
# MDA-MB-231 breast = system: MDA-MB-231 breast
# UO-31 renal = system: UO-31 renal
# CCRF-CEM leukemia = system: CCRF-CEM leukemia
# SK-MEL-5 melanoma = system: SK-MEL-5 melanoma
# KM12 colon = system: KM12 colon
# SK-OV-3 ovarian = system: SK-OV-3 ovarian
# HOP-92 NSCLC = system: HOP-92 NSCLC
# ACHN renal = system: ACHN renal
# SNB-75 CNS = system: SNB-75 CNS
# UACC-257 melanoma = system: UACC-257 melanoma
# MALME-3M melanoma = system: MALME-3M melanoma
# HCT-116 colon = system: HCT-116 colon
# CAKI-1 renal = system: CAKI-1 renal
# NCI-H522 lung = system: NCI-H522 lung
# OVCAR-5 ovarian = system: OVCAR-5 ovarian
# SF-295 CNS = system: SF-295 CNS
# OVCAR-3 ovarian = system: OVCAR-3 ovarian
# SF-539 CNS = system: SF-539 CNS
# A549 NSCLC = system: A549 NSCLC
# U251 CNS = system: U251 CNS
# IGROV1 ovarian = system: IGROV1 ovarian
# T-47D breast = system: T-47D breast
# MCF7 breast = system: MCF7 breast
# NCI-H460 lung = system: NCI-H460 lung
# MDA-MB-468 breast = system: MDA-MB-468 breast
# A498 renal = system: A498 renal
compound,measurement,setting,value
Cn1cc(-c2cc3nc(-c4cn(C)c5ncccc45)cc(N)n3n2)c2ccccc21,GI50,HCC-2998 colon,2.26 µM
same,TGI,HCC-2998 colon,5.44 µM
same,GI50,786-0 renal,1.68 µM
same,TGI,786-0 renal,3.16 µM
same,GI50,SK-MEL-2 melanoma,2.17 µM
same,TGI,SK-MEL-2 melanoma,5.5 µM
same,GI50,NCI-H23 lung,10 µM
same,TGI,NCI-H23 lung,41.2 µM
same,GI50,BT-549 breast,10.2 µM
same,TGI,BT-549 breast,24.3 µM
same,GI50,NCI/ADR-RES ovarian,5.02 µM
same,TGI,NCI/ADR-RES ovarian,24.9 µM
same,GI50,HL-60(TB) leukemia,2.33 µM
same,TGI,HL-60(TB) leukemia,5.11 µM
same,GI50,HS 578T breast,2.48 µM
same,TGI,HS 578T breast,8.08 µM
same,GI50,EKVX NSCLC,10.7 µM
same,TGI,EKVX NSCLC,51.3 µM
same,GI50,SW-620 colon,4.38 µM
same,TGI,SW-620 colon,> 100 µM
same,GI50,DU-145 prostate,9.59 µM
same,TGI,DU-145 prostate,52.9 µM
same,GI50,SN12C renal,2.97 µM
same,TGI,SN12C renal,14.2 µM
same,GI50,SNB-19 CNS,5.11 µM
same,TGI,SNB-19 CNS,26.7 µM
same,GI50,TK-10 renal,11.6 µM
same,TGI,TK-10 renal,51.6 µM
same,GI50,PC-3 prostate,5.52 µM
same,TGI,PC-3 prostate,55 µM
same,GI50,UACC-62 melanoma,1.73 µM
same,TGI,UACC-62 melanoma,3.34 µM
same,GI50,NCI-H226 lung,2.7 µM
same,TGI,NCI-H226 lung,7.12 µM
same,GI50,HT29 colon,2.15 µM
same,TGI,HT29 colon,6.22 µM
same,GI50,OVCAR-8 ovarian,5.63 µM
same,TGI,OVCAR-8 ovarian,> 100 µM
same,GI50,OVCAR-4 ovarian,2.6 µM
same,TGI,OVCAR-4 ovarian,8.09 µM
same,GI50,RXF 393 renal,2.01 µM
same,TGI,RXF 393 renal,4.01 µM
same,GI50,MOLT-4 leukemia,2.38 µM
same,TGI,MOLT-4 leukemia,8.9 µM
same,GI50,HOP-62 NSCLC,4.5 µM
same,TGI,HOP-62 NSCLC,20.7 µM
same,GI50,LOX IMVI melanoma,2.15 µM
same,TGI,LOX IMVI melanoma,4.65 µM
same,GI50,SF-268 CNS,17.2 µM
same,TGI,SF-268 CNS,> 100 µM
same,GI50,SK-MEL-28 melanoma,1.71 µM
same,TGI,SK-MEL-28 melanoma,3.12 µM
same,GI50,MDA-MB-231 breast,2.99 µM
same,TGI,MDA-MB-231 breast,9.7 µM
same,GI50,UO-31 renal,4.77 µM
same,TGI,UO-31 renal,40.9 µM
same,GI50,CCRF-CEM leukemia,2.52 µM
same,TGI,CCRF-CEM leukemia,6.49 µM
same,GI50,SK-MEL-5 melanoma,3.44 µM
same,TGI,SK-MEL-5 melanoma,15.7 µM
same,GI50,KM12 colon,3.84 µM
same,TGI,KM12 colon,> 100 µM
same,GI50,SK-OV-3 ovarian,21 µM
same,TGI,SK-OV-3 ovarian,69.3 µM
same,GI50,HOP-92 NSCLC,2.93 µM
same,TGI,HOP-92 NSCLC,8.33 µM
same,GI50,ACHN renal,2.6 µM
same,TGI,ACHN renal,7.42 µM
same,GI50,SNB-75 CNS,4.97 µM
same,TGI,SNB-75 CNS,24.6 µM
same,GI50,UACC-257 melanoma,1.83 µM
same,TGI,UACC-257 melanoma,3.71 µM
same,GI50,MALME-3M melanoma,1.86 µM
same,TGI,MALME-3M melanoma,3.3 µM
same,GI50,HCT-116 colon,2.56 µM
same,TGI,HCT-116 colon,6.9 µM
same,GI50,CAKI-1 renal,3.74 µM
same,TGI,CAKI-1 renal,19.1 µM
same,GI50,NCI-H522 lung,2.35 µM
same,TGI,NCI-H522 lung,5.91 µM
same,GI50,OVCAR-5 ovarian,8.81 µM
same,TGI,OVCAR-5 ovarian,98.9 µM
same,GI50,SF-295 CNS,1.73 µM
same,TGI,SF-295 CNS,3.63 µM
same,GI50,OVCAR-3 ovarian,3.08 µM
same,TGI,OVCAR-3 ovarian,11.4 µM
same,GI50,SF-539 CNS,1.8 µM
same,TGI,SF-539 CNS,3.71 µM
same,GI50,A549 NSCLC,4.6 µM
same,TGI,A549 NSCLC,> 100 µM
same,GI50,U251 CNS,3.16 µM
same,TGI,U251 CNS,21.4 µM
same,GI50,IGROV1 ovarian,2.84 µM
same,TGI,IGROV1 ovarian,8.11 µM
same,GI50,T-47D breast,5.77 µM
same,TGI,T-47D breast,74.7 µM
same,GI50,MCF7 breast,3.38 µM
same,TGI,MCF7 breast,24.2 µM
same,GI50,NCI-H460 lung,3.75 µM
same,TGI,NCI-H460 lung,14.7 µM
same,GI50,MDA-MB-468 breast,2.43 µM
same,TGI,MDA-MB-468 breast,7.76 µM
same,GI50,A498 renal,17.6 µM
same,TGI,A498 renal,37 µM
O=C(c1ccccc1)C1OC1C(=O)c1ccccc1 (stereo not given),GI50,MDA-MB-468 breast,1.71 µM
same,TGI,MDA-MB-468 breast,6.72 µM
COc1ccc2nc3c(cc2c1)C(=O)CC(c1ccccc1)C3 (stereo not given),GI50,MDA-MB-468 breast,4.08 µM
same,TGI,MDA-MB-468 breast,> 100 µM
C/C(CC(C)(C)N1CC1)=N\NC(=O)Nc1cccc2ccccc12,GI50,MDA-MB-468 breast,1.92 µM
same,TGI,MDA-MB-468 breast,4.61 µM
O=C(CCCC(=O)N/N=C/c1cc(Cl)ccc1O)N/N=C\c1cc(Cl)ccc1O,GI50,MDA-MB-468 breast,2.22 µM
same,TGI,MDA-MB-468 breast,9.3 µM
CCOC(=O)Nc1ccc2c(c1)C(=O)N(CC)c1ccccc1O2,GI50,MDA-MB-468 breast,0.201 µM
COc1cc2c(cc1O)c(=O)n(CCN(C)C)c1c3cc4c(cc3ncc21)OCO4,GI50,MDA-MB-468 breast,< 0.01 µM
same,TGI,MDA-MB-468 breast,0.014 µM
CCCCc1n(Cc2ccc3ccccc3n2)cc[n+]1Cc1ccc2ccccc2n1,GI50,MDA-MB-468 breast,0.244 µM
same,TGI,MDA-MB-468 breast,1.64 µM
CCN1C(=O)N(CC)C2C1NN=c1s/c(=C\c3ccc(C(F)(F)F)cc3)c(=O)n12 (stereo not given),GI50,MDA-MB-468 breast,0.318 µM
same,TGI,MDA-MB-468 breast,24.2 µM
O=C1c2cc3c(cc2-c2c1c1ccc(F)cc1c(=O)n2C[C@H](O)[C@H](O)[C@H](O)CO)OCO3,GI50,MDA-MB-468 breast,0.0646 µM
same,TGI,MDA-MB-468 breast,0.213 µM
COc1ccc([C@@H]2[C@@H](O)C(=O)N2c2cc(OC)c(OC)c(OC)c2)cc1Cl,GI50,MDA-MB-468 breast,< 0.0141 µM
same,TGI,MDA-MB-468 breast,> 35.9 µM
CCOC(=O)c1c2c(n3ccc(NC(=O)CCN4CCCCC4)cc13)C(=O)c1ncccc1C2=O,GI50,MDA-MB-468 breast,1.76 µM
same,TGI,MDA-MB-468 breast,3.39 µM
CC[C@H]1CCC/C=C/[C@@H]2C[C@H](O)C[C@H]2[C@H](O)/C=C/C(=O)O1,TGI,MDA-MB-468 breast,0.0167 µM
CC1=C2[C@@H](CC1)[C@]1(C)O[C@@](C(C)C)(C[C@H]1OC(=O)CO)[C@H]2OC(=O)CCCc1ccccc1,GI50,MDA-MB-468 breast,12.4 µM
same,TGI,MDA-MB-468 breast,26.3 µM
C#Cc1cccc(NC(=O)c2cccc(NC(=O)CCl)c2)c1,GI50,MDA-MB-468 breast,17.4 µM
same,TGI,MDA-MB-468 breast,52.7 µM
